Earlier results on one substance are cited in patent publication US6485659B1, “Electrical apparatus with dielectric fluid blend of polyalphaolefins and polyol esters or triglycerides” (priority 1995, dated 2002).

Like-named read-outs stand apart in the source and are kept apart here.

The conditions of data set [1]: within 7 days; Nippon.
In data set [2] the test system is rats. Conditions: rat, in vivo.
The subject of data set [3] is rats. As to conditions: for chronic toxicity findings: rat, in vivo, po.

As to phenyl-ortho-tolyl-ethane [POXE], in data set [1], the biodegradation is on record as 100% biodegradation within 7 days (Nippon). In addition, the LD50 in rats with rats [2] was 2.3 ml/kg (Dielectrol III, Saperstein and Faeder article). The chronic toxicity findings result with rats [3] is “showed lower weight gain, and liver/kidney enlargement (Dielectrol - Saperstein and Faeder.)”; in the data set with rats [3] (146 mg/kg/day), <146 mg/kg/day showed little to no effects. (Nippon Oil/Saperstein and Faeder). Moreover, the mortality result in the data set on rats [3] (rats, oral, 0.58 ml/kg/day for 1 month, Dielectrol, Saperstein and Faeder) is “In rats, 0.58 ml/kg/day for 1 month yielded 50% mortality. 0.146 ml/kg/day for 3-6 months”.
